Common to all, as to assay type: in vivo
In assay [1] the target is T1, P2X7R (Rattus norvegicus, UniProt Q64663).
T1 construct: upregulation of the tubular expression of the P2X7R; from tissue; host or cells: kidney of living Sprague-Dawley rats (sham, BDL, BDL+LPS); compounds dosed in vivo
T1 sequence (Q64663 1-595): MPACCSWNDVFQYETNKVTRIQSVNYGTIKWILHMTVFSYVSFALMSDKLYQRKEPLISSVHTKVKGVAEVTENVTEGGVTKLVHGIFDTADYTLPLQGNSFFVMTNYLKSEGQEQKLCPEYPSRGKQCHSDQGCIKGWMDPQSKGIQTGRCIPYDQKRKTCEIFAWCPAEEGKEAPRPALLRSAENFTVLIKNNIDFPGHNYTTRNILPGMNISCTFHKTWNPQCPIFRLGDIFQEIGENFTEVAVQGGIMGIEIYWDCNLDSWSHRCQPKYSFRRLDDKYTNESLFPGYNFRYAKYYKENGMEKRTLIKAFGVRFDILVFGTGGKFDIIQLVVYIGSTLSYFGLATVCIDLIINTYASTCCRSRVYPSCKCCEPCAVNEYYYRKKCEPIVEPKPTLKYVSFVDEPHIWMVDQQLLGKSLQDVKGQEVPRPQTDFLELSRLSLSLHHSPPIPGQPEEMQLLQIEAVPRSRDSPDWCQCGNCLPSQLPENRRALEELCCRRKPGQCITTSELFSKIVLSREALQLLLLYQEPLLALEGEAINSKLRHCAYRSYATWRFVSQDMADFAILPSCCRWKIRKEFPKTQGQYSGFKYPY
Put plainly: Creatinine in BDL rats given LPS infusion with intra-renal P2X7R agonist. The conditions noted are these: LPS 0.25 mg/kg iv over 3 hours. An excerpt: (§1) These experiments utilised an established animal model of cirrhosis, the bile duct ligated (BDL) rat. BDL rats may be generated by methods known in the art. For example, male Sprague-Dawley rats (200-250 g) may be used for this procedure. Following anaesthetisation, a mid-line laparotamy may be performed, the bile duct exposed, triply ligated with 4.0 silk suture, and severed between the second and third ligature. The wound is then closed in layers with absorbable suture, and the animal allowed to recover in a quiet room before being returned to the animal storage facility. Sham animals underwent sham laparotomy. The BDL model was studied 4 weeks after bile duct ligation and liver histology confirmed advanced fibrosis.
Rats were given a continuous intravenous infusion of LPS at 0.25 mg/kg over 3 hours. The P2X7R agonist BzATP was infused into the renal artery 30 mins before LPS infusion began and continued for the duration of the experiment at a dose of 150 μg/hour.

The target of assay [2] is T1, P2X7R. Put plainly: P2X7 receptor expression in kidneys, cirrhotic AKI model (BDL rat + LPS), immunohistochemistry. The conditions noted are these: 300 μmol/kg IP 12-hourly for 7 days, with or without LPS 0.5 mg/kg IP, n=3 in each group, FIG. 3.
From the text: as §1
(§2) LPS (lipopolysaccharide) was given at a dose of 0.5 mg/kg intra-peritoneal. The P2X7R antagonist (A-438079) was given at a dose of 300 μmol/kg 12-hourly 7 days before LPS was given (if applicable). Animals were terminated 3 hours post LPS dose. P2X7RA=P2X7R antagonist.
Urine was collected for assessment of urinary biomarkers of acute kidney injury (AKI). Blood was collected for biochemistry, endotoxin and cytokine analysis. Tissue was collected for histology, immunohistochemistry and western blot. Brain frontal cortex was collected to ascertain brain water. Biochemistry was measured using COBAS integra. Urinary NGAL was measured by ELISA. […]

The target of assay [3] is T1, P2X7R. As to the kind of experiment: Biomarkers of acute kidney injury in cirrhotic AKI model (BDL rat + LPS) with P2X7R antagonist. The conditions noted are these: 300 μmol/kg 12-hourly 7 days before LPS 0.5 mg/kg IP, terminated 3 hours post LPS.
From the text: as §1, §2
Urine was collected for assessment of urinary biomarkers of acute kidney injury (AKI). Blood was collected for biochemistry, endotoxin and cytokine analysis. Tissue was collected for histology, immunohistochemistry and western blot. Brain frontal cortex was collected to ascertain brain water. Biochemistry was measured using COBAS integra. Urinary NGAL was measured by ELISA.

In the case of “2′(3′)-O-(4-Benzoylbenzoyl)adenosine-5′-triphosphate [BzATP]”, the “Creatinine (mean)” value in assay [1] (BDL + LPS + BzATP group, 150 μg/hour into renal artery) came to 57.93 µmol/L. Besides, the “reduction of LPS induced rise in creatinine” value in assay [1] (BDL rat, infused into renal artery 150 μg/hour from 30 mins before LPS, FIG. 7) is recorded as 24%.

In the case of `Clc1cccc(-c2nnnn2Cc2cccnc2)c1Cl` [A-438079], in assay [2], the “increased P2X7 receptor expression in kidneys (tubular expression) of BDL and BDL+LPS animals” value was “attenuated”. Further, the “biomarkers of acute kidney injury (urine NGAL, creatinine) compared to the other groups” value in assay [3] (FIG. 4) is recorded as “greater”; in assay [3] (FIG. 4, listed as P2X7R antagonist), “higher”.

Source of the values: patent US20160120938A1, “P2X7 RECEPTOR AGONIST FOR USE IN PREVENTING OR TREATING KIDNEY INJURY” (UCL BUSINESS PLC, priority 2013, published 2016).
